Measurements as given in ChEMBL document CHEMBL5653615 (J Biol Chem, 2013).

Experiments:
[1] = target: Insulin receptor-related protein (Homo sapiens) (UniProt P14616); test: Inhibition of human IRR at 500 nM by HotSpot assay relative to control
[2] = target: T1, Muscle, skeletal receptor tyrosine-protein kinase (Homo sapiens) (UniProt O15146); test: Inhibition of human MUSK at 500 nM by HotSpot assay relative to control
T1 sequence (whole entry): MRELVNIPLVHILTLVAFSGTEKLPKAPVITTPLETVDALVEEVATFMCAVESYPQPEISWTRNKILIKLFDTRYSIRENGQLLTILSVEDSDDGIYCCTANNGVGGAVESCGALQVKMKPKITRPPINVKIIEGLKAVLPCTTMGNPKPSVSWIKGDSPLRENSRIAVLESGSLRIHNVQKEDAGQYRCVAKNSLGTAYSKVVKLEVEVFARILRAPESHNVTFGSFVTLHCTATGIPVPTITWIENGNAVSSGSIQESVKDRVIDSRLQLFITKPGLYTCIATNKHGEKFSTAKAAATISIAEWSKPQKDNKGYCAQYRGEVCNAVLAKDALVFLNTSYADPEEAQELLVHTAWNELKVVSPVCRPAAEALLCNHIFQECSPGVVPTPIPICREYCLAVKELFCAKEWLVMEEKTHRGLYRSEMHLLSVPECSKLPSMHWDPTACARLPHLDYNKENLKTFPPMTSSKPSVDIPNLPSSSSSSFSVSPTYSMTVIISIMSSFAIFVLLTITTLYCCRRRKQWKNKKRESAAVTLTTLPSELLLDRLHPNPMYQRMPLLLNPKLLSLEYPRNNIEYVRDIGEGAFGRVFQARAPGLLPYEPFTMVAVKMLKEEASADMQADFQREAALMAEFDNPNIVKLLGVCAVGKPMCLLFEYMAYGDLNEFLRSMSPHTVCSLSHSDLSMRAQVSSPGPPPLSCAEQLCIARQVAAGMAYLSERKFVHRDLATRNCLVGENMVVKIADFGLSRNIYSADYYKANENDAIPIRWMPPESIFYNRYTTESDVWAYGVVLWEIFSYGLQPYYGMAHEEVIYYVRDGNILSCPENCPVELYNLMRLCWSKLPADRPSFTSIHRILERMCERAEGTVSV

[3] = target: T2, TGF-beta receptor type-1 (Homo sapiens) (UniProt P36897); test: Inhibition of human ALK5 at 500 nM by HotSpot assay relative to control
T2 sequence (whole entry): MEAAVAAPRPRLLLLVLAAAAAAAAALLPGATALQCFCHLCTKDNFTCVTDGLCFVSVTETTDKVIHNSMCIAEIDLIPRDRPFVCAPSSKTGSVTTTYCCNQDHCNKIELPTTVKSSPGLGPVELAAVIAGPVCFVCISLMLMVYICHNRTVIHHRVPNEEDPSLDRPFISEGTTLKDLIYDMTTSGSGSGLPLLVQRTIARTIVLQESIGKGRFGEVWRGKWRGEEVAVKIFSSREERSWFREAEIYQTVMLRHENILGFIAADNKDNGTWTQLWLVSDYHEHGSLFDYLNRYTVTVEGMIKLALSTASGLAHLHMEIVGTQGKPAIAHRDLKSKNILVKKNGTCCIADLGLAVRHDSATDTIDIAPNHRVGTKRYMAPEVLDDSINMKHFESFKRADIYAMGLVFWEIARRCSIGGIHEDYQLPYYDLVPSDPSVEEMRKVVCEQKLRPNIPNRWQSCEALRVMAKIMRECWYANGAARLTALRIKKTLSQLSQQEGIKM

[4] = target: Proto-oncogene tyrosine-protein kinase receptor Ret (Homo sapiens) (UniProt P07949); test: Inhibition of human RET at 500 nM by HotSpot assay relative to control
[5] = target: CDK6/cyclin D1 (Homo sapiens) (UniProt P24385+Q00534); test: Inhibition of human CDK6/cyclin D1 at 500 nM by HotSpot assay relative to control; format: protein-complex assay
[6] = target: Tyrosine-protein kinase Fes/Fps (Homo sapiens) (UniProt P07332); test: Inhibition of human FES at 500 nM by HotSpot assay relative to control
[7] = target: T3, Serine/threonine-protein kinase Nek11 (Homo sapiens) (UniProt Q8NG66); test: Inhibition of human NEK11 at 500 nM by HotSpot assay relative to control
T3 sequence (whole entry): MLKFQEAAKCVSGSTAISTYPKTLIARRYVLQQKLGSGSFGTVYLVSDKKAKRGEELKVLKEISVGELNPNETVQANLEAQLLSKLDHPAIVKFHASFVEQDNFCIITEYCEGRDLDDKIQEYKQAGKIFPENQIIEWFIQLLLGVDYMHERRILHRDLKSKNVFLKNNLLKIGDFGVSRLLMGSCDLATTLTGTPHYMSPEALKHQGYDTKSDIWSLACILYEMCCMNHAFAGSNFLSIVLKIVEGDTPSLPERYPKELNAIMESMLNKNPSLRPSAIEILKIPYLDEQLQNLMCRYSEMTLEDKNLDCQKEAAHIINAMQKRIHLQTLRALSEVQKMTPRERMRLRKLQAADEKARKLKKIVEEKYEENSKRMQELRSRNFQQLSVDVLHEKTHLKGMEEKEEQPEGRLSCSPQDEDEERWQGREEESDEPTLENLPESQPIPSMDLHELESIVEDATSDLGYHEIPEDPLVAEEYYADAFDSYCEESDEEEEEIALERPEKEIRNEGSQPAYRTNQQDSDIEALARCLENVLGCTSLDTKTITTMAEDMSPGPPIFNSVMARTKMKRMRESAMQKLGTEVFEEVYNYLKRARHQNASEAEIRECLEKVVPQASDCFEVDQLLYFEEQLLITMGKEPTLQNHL

[8] = target: T4, Dual specificity mitogen-activated protein kinase kinase 6 (Homo sapiens) (UniProt P52564); test: Inhibition of human MKK6 at 500 nM by HotSpot assay relative to control
T4 sequence (whole entry): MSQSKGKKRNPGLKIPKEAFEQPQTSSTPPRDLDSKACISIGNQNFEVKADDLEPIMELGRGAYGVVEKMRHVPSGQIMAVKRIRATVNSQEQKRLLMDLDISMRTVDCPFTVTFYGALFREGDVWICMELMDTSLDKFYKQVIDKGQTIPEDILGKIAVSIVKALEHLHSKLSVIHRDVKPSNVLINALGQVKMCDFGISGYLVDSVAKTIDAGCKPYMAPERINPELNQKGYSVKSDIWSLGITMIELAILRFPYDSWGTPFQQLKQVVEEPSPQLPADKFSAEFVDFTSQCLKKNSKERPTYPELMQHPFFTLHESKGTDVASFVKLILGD

Chain of Proto-oncogene tyrosine-protein kinase receptor Ret (Homo sapiens) (P07949 whole entry): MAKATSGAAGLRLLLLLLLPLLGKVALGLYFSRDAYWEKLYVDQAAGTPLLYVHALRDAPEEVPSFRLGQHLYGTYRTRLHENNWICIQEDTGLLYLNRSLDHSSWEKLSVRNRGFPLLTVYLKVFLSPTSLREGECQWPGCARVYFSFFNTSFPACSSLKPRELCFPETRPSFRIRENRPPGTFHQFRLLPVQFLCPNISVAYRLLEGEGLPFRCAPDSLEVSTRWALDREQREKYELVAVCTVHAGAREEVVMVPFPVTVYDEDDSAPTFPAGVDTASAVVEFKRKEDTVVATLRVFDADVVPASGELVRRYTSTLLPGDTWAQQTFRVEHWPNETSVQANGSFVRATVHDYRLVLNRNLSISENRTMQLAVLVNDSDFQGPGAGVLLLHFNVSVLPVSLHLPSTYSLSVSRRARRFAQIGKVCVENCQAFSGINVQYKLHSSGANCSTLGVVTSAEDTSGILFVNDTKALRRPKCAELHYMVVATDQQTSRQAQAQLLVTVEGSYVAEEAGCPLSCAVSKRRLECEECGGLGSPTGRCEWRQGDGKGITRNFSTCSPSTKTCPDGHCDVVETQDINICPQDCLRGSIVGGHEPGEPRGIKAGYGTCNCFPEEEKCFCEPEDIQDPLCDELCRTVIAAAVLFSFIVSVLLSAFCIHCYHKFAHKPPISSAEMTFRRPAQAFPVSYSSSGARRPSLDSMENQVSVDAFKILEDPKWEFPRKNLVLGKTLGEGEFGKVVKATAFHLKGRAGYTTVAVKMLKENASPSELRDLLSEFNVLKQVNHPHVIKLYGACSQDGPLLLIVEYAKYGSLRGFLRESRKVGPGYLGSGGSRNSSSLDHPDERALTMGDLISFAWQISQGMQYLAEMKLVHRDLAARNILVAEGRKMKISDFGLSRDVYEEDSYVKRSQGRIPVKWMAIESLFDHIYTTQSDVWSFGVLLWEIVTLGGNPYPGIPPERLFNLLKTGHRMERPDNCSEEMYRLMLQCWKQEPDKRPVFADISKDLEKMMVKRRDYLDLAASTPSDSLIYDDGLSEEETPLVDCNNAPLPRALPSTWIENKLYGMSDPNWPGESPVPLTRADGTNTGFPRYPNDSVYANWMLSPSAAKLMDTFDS
Chain of Insulin receptor-related protein (Homo sapiens) (P14616 27-742 limits assumed): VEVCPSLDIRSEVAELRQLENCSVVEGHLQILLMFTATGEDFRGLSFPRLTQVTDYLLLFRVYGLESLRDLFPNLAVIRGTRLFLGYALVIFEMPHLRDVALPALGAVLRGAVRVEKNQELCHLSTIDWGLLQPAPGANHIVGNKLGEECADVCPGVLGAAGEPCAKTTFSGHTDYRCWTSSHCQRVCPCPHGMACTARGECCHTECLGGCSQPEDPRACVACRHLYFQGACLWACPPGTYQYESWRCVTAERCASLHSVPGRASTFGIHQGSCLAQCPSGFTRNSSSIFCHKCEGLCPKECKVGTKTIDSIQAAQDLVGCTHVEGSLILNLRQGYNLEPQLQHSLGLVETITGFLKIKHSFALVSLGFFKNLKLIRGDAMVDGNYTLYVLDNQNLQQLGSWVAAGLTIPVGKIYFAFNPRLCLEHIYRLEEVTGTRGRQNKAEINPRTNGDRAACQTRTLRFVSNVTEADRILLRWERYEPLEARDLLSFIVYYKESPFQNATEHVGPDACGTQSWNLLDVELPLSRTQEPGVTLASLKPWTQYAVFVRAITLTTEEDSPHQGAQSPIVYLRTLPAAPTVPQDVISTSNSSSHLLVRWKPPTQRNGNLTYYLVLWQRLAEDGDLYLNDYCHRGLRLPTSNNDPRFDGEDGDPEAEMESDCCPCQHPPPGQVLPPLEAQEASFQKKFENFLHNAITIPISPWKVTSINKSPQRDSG
Chain of Insulin receptor-related protein (Homo sapiens) (P14616 747-1297 limits assumed): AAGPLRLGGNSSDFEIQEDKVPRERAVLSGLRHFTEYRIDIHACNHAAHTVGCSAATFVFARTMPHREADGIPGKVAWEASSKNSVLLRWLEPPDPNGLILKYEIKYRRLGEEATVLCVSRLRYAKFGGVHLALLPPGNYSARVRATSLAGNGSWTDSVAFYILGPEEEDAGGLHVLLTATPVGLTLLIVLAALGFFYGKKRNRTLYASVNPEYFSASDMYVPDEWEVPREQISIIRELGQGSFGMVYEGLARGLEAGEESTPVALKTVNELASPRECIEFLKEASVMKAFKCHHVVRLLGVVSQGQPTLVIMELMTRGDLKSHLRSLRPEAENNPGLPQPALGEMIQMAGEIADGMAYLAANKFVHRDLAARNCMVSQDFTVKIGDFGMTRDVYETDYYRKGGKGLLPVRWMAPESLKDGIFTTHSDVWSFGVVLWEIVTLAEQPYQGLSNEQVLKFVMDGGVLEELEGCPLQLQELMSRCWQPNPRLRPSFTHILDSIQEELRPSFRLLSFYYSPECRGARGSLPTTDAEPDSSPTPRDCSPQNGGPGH
Chain of Tyrosine-protein kinase Fes/Fps (Homo sapiens) (P07332 whole entry): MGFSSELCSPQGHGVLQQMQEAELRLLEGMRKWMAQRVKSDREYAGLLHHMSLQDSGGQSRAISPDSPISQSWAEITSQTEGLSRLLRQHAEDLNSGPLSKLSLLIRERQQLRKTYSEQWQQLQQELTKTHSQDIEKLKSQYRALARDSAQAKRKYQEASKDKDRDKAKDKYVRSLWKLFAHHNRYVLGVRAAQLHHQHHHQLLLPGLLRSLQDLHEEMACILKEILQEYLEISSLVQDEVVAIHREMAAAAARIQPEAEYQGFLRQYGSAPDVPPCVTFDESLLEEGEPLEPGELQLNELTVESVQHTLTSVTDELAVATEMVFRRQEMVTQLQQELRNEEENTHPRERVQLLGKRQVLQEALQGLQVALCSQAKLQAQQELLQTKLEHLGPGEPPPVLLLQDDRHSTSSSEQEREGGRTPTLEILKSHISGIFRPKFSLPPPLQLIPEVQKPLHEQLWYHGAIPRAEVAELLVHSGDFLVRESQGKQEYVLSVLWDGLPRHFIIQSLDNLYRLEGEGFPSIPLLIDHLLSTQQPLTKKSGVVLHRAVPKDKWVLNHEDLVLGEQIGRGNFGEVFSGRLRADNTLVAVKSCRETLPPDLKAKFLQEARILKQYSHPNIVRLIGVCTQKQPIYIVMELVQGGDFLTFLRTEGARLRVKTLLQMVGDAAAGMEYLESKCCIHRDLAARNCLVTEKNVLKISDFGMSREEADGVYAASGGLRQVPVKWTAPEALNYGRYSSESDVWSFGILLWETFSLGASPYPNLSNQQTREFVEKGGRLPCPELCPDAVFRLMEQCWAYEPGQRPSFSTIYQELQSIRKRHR

| Structure (SMILES) | inhibition [1] | inhibition [2] | inhibition [3] | inhibition [4] | inhibition [5] | inhibition [6] | inhibition [7] | inhibition [8] |
| --- | --- | --- | --- | --- | --- | --- | --- | --- |
| Nc1n[nH]c2nnc(-c3c(-c4ccccc4)nn4ccccc34)cc12 | 4.29% | 3.22% | 3.87% | 6.33% | -0.33% | 2.16% | 4.86% | 9.06% |
| Oc1n[nH]c2nnc(-c3c(-c4ccccc4)nn4ccccc34)cc12 | 13.8% | 3.28% | 4.23% | -3.97% | -3.16% | 0.31% | -4.37% | 8.78% |
